From US10011586B2, “Heterocyclic compound, method for preparing the same, and pharmaceutical composition comprising the same” (Daewoong Pharmaceutical Co., Ltd., priority 2015, dated 2018)

Assays:
[1] = system: NCI-H460 cells; test: Cancer cell growth inhibition experiment (MTT assay); assay type: cell-based; settings: Homo sapiens, lung cancer cell line, compounds 48 hours, cell viability by MTT assay
Procedure: NCl-H460 cells, lung cancer cell lines, were cultured in 5% CO2, 37° C. incubator using a flask for 75 cm^2 tissue culture. 96-well plates were used for the evaluation. These were prepared by differently applying at concentrations in the range of 6,000 to 12,000 cells/well according to the growth rate of the cell lines. The medium containing 5% FBS were dispensed in 200 μL/well and used. The medium were cultured for 24 hours. After confirming the cell status and dispensing form of a 96-well plate under a microscope, they were used for subsequent experiments. The compounds were evaluated at concentrations of 100, 30, 10, 3, 1, 0.3, 0.03, 0.01 μM. After removing the existing medium, the compounds with various concentrations were treated in an amount of 200 μL/well. The compounds-treated plates were further cultured for 48 hours, and the cell viabilities were measured by MTT assay to calculate IC50 values.
% Inhibition and IC50 values of the respective compounds were calculated and analyzed using Sigma Plot 8.0. In Table 2, the results are divided into A, B and C according to the range of IC50. The case where the derived IC50 is 3 μM or less is represented by “A”, the case where the IC50 is 3 to 10 μM is represented by “B”, and the case where the IC50 is 10 μM or higher is represented by “C”.

[2] = target: T1, PRS enzyme (Homo sapiens, UniProt P07814); test: PRS enzyme activity inhibition experiment; assay type: biochemical; settings: purified PRS protein subcloned from EPRS cDNA; [3H]proline, 37° C., 5 to 10 minutes, liquid scintillation counter; read-out: PRS IC50
T1 construct: the portion corresponding to PRS in cDNA of EPRS was subcloned; made in house
T1 sequence (P07814 1007-1512 limits assumed): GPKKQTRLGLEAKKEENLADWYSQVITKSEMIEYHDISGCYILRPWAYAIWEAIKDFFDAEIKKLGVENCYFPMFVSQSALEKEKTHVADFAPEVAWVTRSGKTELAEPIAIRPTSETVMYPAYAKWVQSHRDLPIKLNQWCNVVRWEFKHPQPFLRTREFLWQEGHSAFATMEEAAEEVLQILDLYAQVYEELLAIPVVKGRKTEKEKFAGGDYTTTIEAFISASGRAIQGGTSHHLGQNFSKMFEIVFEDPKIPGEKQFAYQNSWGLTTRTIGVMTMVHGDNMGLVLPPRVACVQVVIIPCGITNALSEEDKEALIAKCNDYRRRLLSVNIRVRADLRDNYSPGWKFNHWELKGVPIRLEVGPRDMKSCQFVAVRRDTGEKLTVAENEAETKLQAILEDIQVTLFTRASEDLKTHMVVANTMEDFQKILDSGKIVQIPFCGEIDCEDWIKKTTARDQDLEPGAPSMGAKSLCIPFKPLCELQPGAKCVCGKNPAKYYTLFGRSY
Procedure: Specifically, the portion corresponding to PRS in cDNA of EPRS was subcloned, and the obtained high-purity PRS protein was purified and used in the experiment. The compounds (1 μM) prepared in Examples were added into the reaction buffer (20 mM KPO4 (pH 7.4), 6 mM MgAc, 5 mM ATP, […] tRNA, 0.5 mM DTT, […][^3H]proline (1 mCi/mL)) and allowed to react at 37° C. for 5 to 10 minutes. The reaction was terminated with 3M paper that was in advance dried by addition of 5% TCA. The radioactivity was measured using a liquid scintillation counter.
% Inhibition and IC50 values of the respective compounds were calculated and analyzed using Microsoft Excel or Sigma Plot 8.0. In Table 1, the results are divided into A, B and C according to the range of IC50.

IC50 [1] | IC50 [2] | Structure (SMILES)
3000 to 10000 nM | < 100 nM | Cc1cccc(-c2ccc3ncn(CC(=O)C[C@H]4NCCC[C@@H]4O)c3c2)c1 [Example 30, 1-((2R,3S)-3-hydroxypiperidin-2-yl)-3-(6-(m-tolyl)-1H-benzo[d]imidazol-1-yl)propan-2-one]
≥ 10000 nM | > 500 nM | O=C(C[C@H]1NCCC[C@@H]1O)Cn1c(CO)nc2cc(-c3cccc(F)c3)ccc21 [Example 56, 1-(5-(3-fluorophenyl)-2-(hydroxymethyl)-1H-benzo[d]imidazol-1-yl)-3-((2R,3S)-3-hydroxypiperidin-2-yl)propan-2-one]
3000 to 10000 nM | < 100 nM | O=C(C[C@H]1NCCC[C@@H]1O)Cn1c(CO)nc2ccc(-c3ccccc3F)cc21 [Example 58, 1-(6-(2-fluorophenyl)-2-(hydroxymethyl)-1H-benzo[d]imidazol-1-yl)-3-((2R,3S)-3-hydroxypiperidin-2-yl)propan-2-one]
3000 to 10000 nM | < 100 nM | O=C(C[C@H]1NCCC[C@@H]1O)Cn1cnc2ccc(-c3cc(Cl)cc(Cl)c3)cc21 [Example 31, 1-(6-(3,5-dichlorophenyl)-1H-benzo[d]imidazol-1-yl)-3-((2R,3S)-3-hydroxypiperidin-2-yl)propan-2-one]
≥ 10000 nM | > 500 nM | COc1cccc(-c2ccc3c(ncn3CC(=O)C[C@H]3NCCC[C@@H]3O)c2C)c1 [Example 22, 1-((2R,3S)-3-hydroxypiperidin-2-yl)-3-(5-(3-methoxyphenyl)-4-methyl-1H-benzo[d]imidazol-1-yl)propan-2-one]
3000 to 10000 nM | < 100 nM | O=C(C[C@H]1NCCC[C@@H]1O)Cn1cnc2ccc(-c3ccc(Cl)cc3)cc21 [Example 28, 1-(6-(4-chlorophenyl)-1H-benzo[d]imidazol-1-yl)-3-((2R,3S)-3-hydroxypiperidin-2-yl)propan-2-one]
≥ 10000 nM | 100 to 500 nM | Cc1c(-c2cccc(F)c2)ccc2c1ncn2CC(=O)C[C@H]1NCCC[C@@H]1O [Example 16, 1-(5-(3-fluorophenyl)-4-methyl-1H-benzo[d]imidazol-1-yl)-3-((2R,3S)-3-hydroxypiperidin-2-yl)propan-2-one]
≤ 3000 nM | 100 to 500 nM | O=C(C[C@H]1NCCC[C@@H]1O)Cn1cnc2ccc(-c3ccccc3F)nc21 [Example 43, 1-(5-(2-fluorophenyl)-3H-imidazo[4,5-b]pyridin-3-yl)-3-((2R,3S)-3-hydroxypiperidin-2-yl)propan-2-one]
3000 to 10000 nM | < 100 nM | O=C(C[C@H]1NCCC[C@@H]1O)Cn1cnc2ccc(-c3ccccc3Cl)cc21 [Example 26, 1-(6-(2-chlorophenyl)-1H-benzo[d]imidazol-1-yl)-3-((2R,3S)-3-hydroxypiperidin-2-yl)propan-2-one]
≥ 10000 nM | 100 to 500 nM | O=C(C[C@H]1NCCC[C@@H]1O)Cn1cnc2cccc(-c3ccc(C(F)(F)F)cc3)c21 [Example 54, 1-((2R,3S)-3-hydroxypiperidin-2-yl)-3-(7-(4-(trifluoromethyl)phenyl)-1H-benzo[d]imidazol-1-yl)propan-2-one]
≥ 10000 nM | > 500 nM | Cc1c(-c2ccccc2Cl)ccc2c1ncn2CC(=O)C[C@H]1NCCC[C@@H]1O [Example 18, 1-(5-(2-chlorophenyl)-4-methyl-1H-benzo[d]imidazol-1-yl)-3-((2R,3S)-3-hydroxypiperidin-2-yl)propan-2-one]
3000 to 10000 nM | < 100 nM | Cc1cc(Cl)cc(-c2ccc3ncn(CC(=O)C[C@H]4NCCC[C@@H]4O)c3c2)c1 [Example 34, 1-(6-(3-chloro-5-methylphenyl)-1H-benzo[d]imidazol-1-yl)-3-((2R,3S)-3-hydroxypiperidin-2-yl)propan-2-one]
≥ 10000 nM | < 100 nM | O=C(C[C@H]1NCCC[C@@H]1O)Cn1cnc2ccc(-c3cn[nH]c3)cc21 [Example 37, 1-(6-(1H-pyrazol-4-yl)-1H-benzo[d]imidazol-1-yl)-3-((2R,3S)-3-hydroxypiperidin-2-yl)propan-2-one]
